How the values were obtained:
[1] = target: T1, recombinant human cannabinoid 1 receptor (CB1) (Homo sapiens, UniProt P21554); assay: In vitro determination of antagonism to CB1-receptor, [35S]GTPγS binding assay; type: biochemical; conditions: compound 1 μM with agonist WIN 55,212-2 (3 nM to 3 μM); 100% = difference between maximal WIN 55,212-2 effect alone and plus Rimonabant (1 μM); CHO-hCB1 membranes
T1 construct: expressed in transfected cells; membrane preparation
Description: VI. In vitro Determination of Antagonism to CB1-Receptor
In order to obtain cells, culture flasks were washed twice with phosphate buffered saline and scraped. Then, cells were collected by centrifugation (200×g, 10 min) and stored dry at −80° C.
[^35S]GTPγS Binding Assay:
The reaction was performed in 96-well plates. […] Filter plates were dried and 30 μl of scintillation liquid was added, Radioactivity was determined using a Wallac Microbeta Trilux. Each experiment was performed at least in duplicate.
The average of basal [^35S]GTPγS binding was subtracted from all binding data.

[2] = Chronic administration to animals made obese by a simplified cafeteria diet; type: in vivo, rats
[3] = Effect of continued administration on body weight in rats; type: in vivo
Description: V. Determination of the Effect of Continued Administration of the Inventive Compounds on Body Weight in Rats
The weight of the animals was measured for 36 days, and the data grouped into 3 periods for analysis: Period 1, days 1-8 (period for adaptation of the animals to the environmental conditions: one week without treatment plus first day of treatment); Period 2. days 9-22 (treatment period: two weeks); Period 3, days 23-36 (escape treatment period: two weeks). The administration of the drugs started on day 8, immediately after the animal was weighted, and finished on day 21. The treatment period ranges between one day after first administration and one day after last administration. The drugs were administered i.p. once daily. For comparative purposes, absolute weights were transformed into relative percentages (each weight was divided by that of day 8 and multiplied by 100). […] All results are expressed as mean±S.E.M.
The dependence of body-weight (expressed as a percentage relative to day 8) on time (number of lays after inclusion in the study) and treatment was assessed by a two-way (time, treatment) analysis of variance (ANOVA) with repeated measures on the time factor. […] The differences between pairs of curves (treatments) were analyzed using appropriate contrasts within the ANOVA test. […]

T1 sequence (P21554 whole entry): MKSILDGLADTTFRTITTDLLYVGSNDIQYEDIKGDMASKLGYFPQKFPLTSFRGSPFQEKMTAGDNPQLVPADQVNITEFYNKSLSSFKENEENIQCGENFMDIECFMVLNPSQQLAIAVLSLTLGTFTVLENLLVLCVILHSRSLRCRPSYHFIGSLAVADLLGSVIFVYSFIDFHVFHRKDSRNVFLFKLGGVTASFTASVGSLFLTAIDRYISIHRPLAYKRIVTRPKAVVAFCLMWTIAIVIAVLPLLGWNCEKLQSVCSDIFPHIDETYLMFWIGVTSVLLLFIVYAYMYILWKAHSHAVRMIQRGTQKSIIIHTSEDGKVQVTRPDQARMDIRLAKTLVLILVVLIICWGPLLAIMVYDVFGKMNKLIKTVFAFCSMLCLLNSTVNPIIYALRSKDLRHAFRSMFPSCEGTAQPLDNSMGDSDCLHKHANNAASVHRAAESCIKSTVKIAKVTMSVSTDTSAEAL

Row | SMILES | Antagonism [%] [1] | body weight versus vehicle-treated controls ([2]; after 28 days of drug treatment, rats) | body weight ([2]; chronic administration, animals made obese by cafeteria diet (high-fat diet, chocolate, ground peanuts)) | effect on plasma lipids (triacylglycerol and glycerol) ([2]; following chronic administration, seems independent of weight loss) | body weight during treatment period ([3]; 10 mg/kg i.p. once daily, days 9-22, FIG. 1) | body weight in post-treatment period ([3]; after 10 mg/kg i.p. once daily, days 23-36, FIG. 1)
1 | O=C(NN1CCCCC1)C1=NN(c2ccc(Cl)cc2Cl)[C@H](c2ccc(Cl)cc2)C1 [A, (S)-N-piperidinyl-5-(4-chlorophenyl)-1-(2,4-dichlorophenyl)-4,5-dihydro-1H-pyrazole-3-carboxamide] | 43% | lower than those of the vehicle-treated controls | significantly decreased body weight | positive effect on plasma lipids | significant action during the treatment period | relatively fast recovery of weight
2 | Cl.O=C(NN1CCCCC1)C1=NN(c2ccc(Cl)cc2Cl)[C@H](c2ccc(Cl)cc2)C1 [A-Hydrochloride, Hydrochloride salt of (S)-N-piperidinyl-5-(4-chlorophenyl)-1-(2,4-dichlorophenyl)-4,5-dihydro-1H-pyrazole-3-carboxamide] | −7% |  |  |  |  | 
